The text below walks through data of patent publication US9822130B2, “Triazolo-pyrazinyl derivatives useful as soluble guanylate cyclase activators” (Merck Sharp & Dohme Corp., priority 2014, dated 2017).

In one test the target is T1, sGC α1/β1 heterodimer stably expressed in CHO-K1 cell line (CHO-K1/sGC) (Homo sapiens, UniProt Q02108+Q02153).
T1 construct: expressed in transfected cells
T1 sequence (Q02108 1-690): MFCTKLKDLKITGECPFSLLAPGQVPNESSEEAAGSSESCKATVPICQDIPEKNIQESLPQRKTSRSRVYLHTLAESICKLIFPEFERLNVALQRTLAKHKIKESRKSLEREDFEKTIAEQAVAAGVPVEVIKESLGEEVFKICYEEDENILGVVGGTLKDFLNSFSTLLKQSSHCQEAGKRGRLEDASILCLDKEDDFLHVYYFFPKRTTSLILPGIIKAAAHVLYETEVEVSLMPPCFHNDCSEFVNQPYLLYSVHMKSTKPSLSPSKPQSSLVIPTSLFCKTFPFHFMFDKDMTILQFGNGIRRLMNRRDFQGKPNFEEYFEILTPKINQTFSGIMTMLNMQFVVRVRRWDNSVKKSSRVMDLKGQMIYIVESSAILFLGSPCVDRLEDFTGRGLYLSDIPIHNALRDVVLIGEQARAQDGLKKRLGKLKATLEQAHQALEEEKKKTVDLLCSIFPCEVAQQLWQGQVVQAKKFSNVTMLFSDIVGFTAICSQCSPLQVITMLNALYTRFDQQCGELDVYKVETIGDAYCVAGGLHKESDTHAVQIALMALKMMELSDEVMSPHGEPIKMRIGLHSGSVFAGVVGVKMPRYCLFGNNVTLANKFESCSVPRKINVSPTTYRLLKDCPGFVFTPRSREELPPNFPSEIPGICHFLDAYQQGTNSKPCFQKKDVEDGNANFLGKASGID
T1 sequence (Q02153 1-619): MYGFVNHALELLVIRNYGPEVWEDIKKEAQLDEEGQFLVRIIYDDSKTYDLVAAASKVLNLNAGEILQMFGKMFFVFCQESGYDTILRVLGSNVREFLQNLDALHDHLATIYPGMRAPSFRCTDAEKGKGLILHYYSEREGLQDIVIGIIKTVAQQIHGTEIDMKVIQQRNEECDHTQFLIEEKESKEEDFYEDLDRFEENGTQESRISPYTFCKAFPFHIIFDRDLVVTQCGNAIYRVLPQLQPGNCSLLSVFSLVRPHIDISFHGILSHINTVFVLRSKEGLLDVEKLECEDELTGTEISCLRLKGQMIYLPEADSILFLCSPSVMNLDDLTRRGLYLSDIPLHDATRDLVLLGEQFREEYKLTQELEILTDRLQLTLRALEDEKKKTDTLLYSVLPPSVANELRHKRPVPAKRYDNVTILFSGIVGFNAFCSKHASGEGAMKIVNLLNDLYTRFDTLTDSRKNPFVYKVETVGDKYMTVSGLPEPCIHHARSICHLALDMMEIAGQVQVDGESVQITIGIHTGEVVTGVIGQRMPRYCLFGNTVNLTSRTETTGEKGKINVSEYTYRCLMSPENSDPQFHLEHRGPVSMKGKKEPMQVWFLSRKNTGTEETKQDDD
Kind of test: Cell-based sGC Functional Assay (CASA Assay), cGMP generation. Conditions: CHO-K1/sGC cells, 1 hr at 37° C., cGMP by HTRF, 4P fit; presence or absence of 1 μM DETA-NO not given; read-out: IP (nM) (inflection point). The text has this:
sGC is a heme-containing enzyme that converts GTP to secondary messenger cGMP. Increases in cGMP levels affect several physiological processes including vasorelaxation through multiple downstream pathways. […] Heme-dependent activators (HDAs) preferentially activate sGC containing a ferrous heme group. To determine the effect of sGC activators on enzyme activity, the CASA assay was developed to monitor the generation of cGMP in a cell line that stably expresses the heterodimeric sGC protein.
A CHO-K1 cell line stably expressing the sGC α1/β1 heterodimer was generated using a standard transfection protocol. CHO-K1 cells were transfected with plasmids pIREShyghsGCα1 and pIRESneo-hsGCβ1 simultaneously using FUGENE reagent. Clones that stably express both subunits were selected with hygromycin and neomycin for ˜2 weeks. Clone #7 was chosen for the assay and was designated CHO-K1/sGC. CHO-K1/sGC cells were maintained in F-K12 medium containing 10% heat-inactivated Fetal Bovine Serum (FBS), 100 μg/mL penicillin/streptomycin, 0.5 mg/mL hygromycin and 0.25 mg/mL G418. The cells were then cryopreserved in LN2. On the day of the assay, cells thawed and resuspended in EBSS Assay Buffer (Sigma, E3024) supplemented with 5 mM MgCl2, 10 mM HEPES (4-(2-hydroxyethyl)piperazine-1-ethanesulfonic acid) and 0.05% BSA (bovine serum albumin) (EAB) and cell density was then adjusted to 4×10^5/mL with EAB, IBMX (3-isobutyl-1-methylxanthin, 0.5 mM) was added to inhibit degradation of cGMP. Compounds were diluted from DMSO stock solutions and added to the assay at a final DMSO concentration of 2.5%. Cells were incubated with compounds in the presence and absence of 1 μM of Diethylenetriamine/nitric oxide adduct (DETA-NO; Sigma, 17018) for 1 hr at 37° C. At the end of the incubation period, the reaction was terminated and the cells were lysed with the detection reagents from Cisbio Kits. The level of intracellular cGMP was determined using an HTRF-based assay kit (CisBio, 62GM2PEC), which detects the displacement of a fluorescence labeled cGMP from its specific antibody. The cGMP produced by test compounds was directly compared to the maximum cGMP production (this value was set to equal 100% activation.) of the published sGC-HDA Compound A:
[drawing 300] (Example 1 in WO 2010/065275, published Jun. 10, 2010). The test compounds' activities were then expressed as a percentage of Compound A, the standard in every experiment. This percent activation was calculated either in the presence or absence of DETA-NO which was then plotted. IP and maximum fold induction was derived using ADA analysis software for 4P fit.
The compounds in the Examples of the instant invention had inflection points (IP) less than or equal to 10 μM and more particularly less than or equal to about 1 μM.
Background: In TR-FRET formats the signal depends on donor and acceptor labels being close together.
For the compound `Nc1nc(-c2cn3ncnc3c(CCC(F)(F)C(F)(F)F)n2)nc2c1C(c1cncc(F)c1)(C1CC1)C(=O)N2` (stereo not shown) [Example 8B, 4-amino-5-cyclopropyl-5-(5-fluoropyridin-3-yl)-2-(8-(3,3,4,4,4-pentafluorobutyl)-[1,2,4]triazolo[1,5-a]pyrazin-6-yl)-5H-pyrrolo[2,3-d]pyrimidin-6(7H)-one], the EC50 amounted to 294 nM.

As to `CC1(c2cncc(F)c2)C(=O)Nc2nc(-c3cn4ncnc4c(CCC(F)(F)C(F)(F)F)n3)nc(N)c21` (stereo not shown) [Example 9A, 4-amino-5-(5-fluoropyridin-3-yl)-5-methyl-2-(8-(3,3,4,4,4-pentafluorobutyl)-[1,2,4]triazolo[1,5-a]pyrazin-6-yl)-5H-pyrrolo[2,3-d]pyrimidin-6(7H)-one], the EC50 was determined as 63 nM.

In the case of `CC1(c2ccc(Cl)cc2)C(=O)Nc2nc(-c3cn4ncnc4c(CCC(F)(F)C(F)(F)F)n3)nc(N)c21` (stereo not shown) [Example 10A, 4-amino-5-(4-chlorophenyl)-5-methyl-2-(8-(3,3,4,4,4-pentafluorobutyl)-[1,2,4]triazolo[1,5-a]pyrazin-6-yl)-5H-pyrrolo[2,3-d]pyrimidin-6(7H)-one], the EC50 came to 15.8 nM.

Regarding `CC1(c2ccccn2)C(=O)Nc2nc(-c3cn4ncnc4c(CCC(F)(F)C(F)(F)F)n3)nc(N)c21` (stereo not shown) [Example 11B, 4-amino-5-methyl-2-(8-(3,3,4,4,4-pentafluorobutyl)-[1,2,4]triazolo[1,5-a]pyrazin-6-yl)-5-(pyridin-2-yl)-5H-pyrrolo[2,3-d]pyrimidin-6(7H)-one], the EC50 came to 25.2 nM.

Take `CC1(c2ccccc2)C(=O)Nc2nc(-c3cn4ncnc4c(CCC(F)(F)C(F)(F)F)n3)nc(N)c21` (stereo not shown) [Example 12B, 4-amino-5-methyl-2-(8-(3,3,4,4,4-pentafluorobutyl)-[1,2,4]triazolo[1,5-a]pyrazin-6-yl)-5-phenyl-5H-pyrrolo[2,3-d]pyrimidin-6(7H)-one]: the EC50 was determined as 11.1 nM.

Regarding `CC1(c2ccc(C3CC3)nc2)C(=O)Nc2nc(-c3cn4ncnc4c(CCC(F)(F)C(F)(F)F)n3)nc(N)c21` (stereo not shown) [Example 13B, 4-amino-5-(6-cyclopropylpyridin-3-yl)-5-methyl-2-(8-(3,3,4,4,4-pentafluorobutyl)-[1,2,4]triazolo[1,5-a]pyrazin-6-yl)-5H-pyrrolo[2,3-d]pyrimidin-6(7H)-one], the EC50 stood at 80.6 nM.

Consider `CC1(c2cccc(F)c2)C(=O)Nc2nc(-c3cn4ncnc4c(CCC(F)(F)C(F)(F)F)n3)nc(N)c21` (stereo not shown) [Example 14B, 4-amino-5-(3-fluorophenyl)-5-methyl-2 (8-(3,3,4,4,4-pentafluorobutyl)-[1,2,4]triazolo[1,5-a]pyrazin-6-yl)-5H-pyrrolo[2,3-d]pyrimidin-6(7H)-one], for which the EC50 is 5.5 nM.

`Nc1nc(-c2cn3ncnc3c(CCC(F)(F)C(F)(F)F)n2)nc2c1C(c1ccc(C(F)(F)F)cn1)(C1CC1)C(=O)N2` (stereo not shown) [Example 15A, 4-amino-5-cyclopropyl-2-(8-(3,3,4,4,4-pentafluorobutyl)-[1,2,4]triazolo[1,5-a]pyrazin-6-yl)-5-(5-(trifluoromethyl)pyridin-2-yl)-5H-pyrrolo[2,3-d]pyrimidin-6(7H)-one]: the EC50 amounted to 316 nM.

With `CC1(c2ccc(C#N)cn2)C(=O)Nc2nc(-c3cn4ncnc4c(CCC(F)(F)C(F)(F)F)n3)nc(N)c21` (stereo not shown) [Example 18A, 6-(4-amino-5-methyl-6-oxo-2-(8-(3,3,4,4,4-pentafluorobutyl)-[1,2,4]triazolo[1,5-a]pyrazin-6-yl)-6,7-dihydro-5H-pyrrolo[2,3-d]pyrimidin-5-yl)nicotinonitrile], the EC50 was determined as 38.6 nM.

For `Cc1ccc(C2(C)C(=O)Nc3nc(-c4cn5ncnc5c(CCC(F)(F)C(F)(F)F)n4)nc(N)c32)nc1` (stereo not shown) [Example 19B, 4-amino-5-methyl-5-(5-methylpyridin-2-yl)-2-(8-(3,3,4,4,4-pentafluorobutyl)-[1,2,4]triazolo[1,5-a]pynizin-6-yl)-5H-pyrrolo[2,3-d]pyrimidin-6(7H)-one], the EC50 is 14.7 nM.

In the case of `CC(C)n1cc(C2(C)C(=O)Nc3nc(-c4cn5ncnc5c(CCC(F)(F)C(F)(F)F)n4)nc(N)c32)nn1` (stereo not shown) [Example 20A, 4-amino-5-(1-isopropyl-1H-1,2,3-triazol-4-yl)-5-methyl-2-(8-(3,3,4,4,4-pentafluorobutyl)-[1,2,4]triazolo[1,5-a]pyrazin-6-yl)-5H-pyrrolo[2,3-d]pyrimidin-6(7H)-one], the EC50 stood at 176 nM.

Turning to `CC1(c2ccc(F)cn2)C(=O)Nc2nc(-c3cn4ncnc4c(CCCC(F)(F)F)n3)nc(N)c21` (stereo not shown) [Example 22B, 4-amino-5-(5-fluoropyridin-2-yl)-5-methyl-2-(8-(4,4,4-trifluorobutyl)-[1,2,4]triazolo[1,5-a]pyrazin-6-yl)-5H-pyrrolo[2,3-d]pyrimidin-6(7H)-one], the EC50 turned out to be 38.3 nM.

In the case of `C[C@@]1(c2ccc(F)cc2)C(=O)Nc2nc(-c3cn4ncnc4c(CCCC(F)(F)F)n3)nc(N)c21` [Example 23A, (S)-4-amino-5-(4-fluorophenyl)-5-mclhyl-2-(S-(4,4,4-trifluorobutyl)-[1,2,4]triazolo[1,5-a]pyrazin-6-yl)-5,7-dihydro-6H-pyrrolo[2,3-d]pyrimidin-6-one], the EC50 stood at 29.6 nM.

For `CC1(c2ccc(C(F)(F)F)cc2)C(=O)Nc2nc(-c3cn4ncnc4c(CCCC(F)(F)F)n3)nc(N)c21` (stereo not shown) [Example 24B, 4-amino-5-methyl-2-(8-(4,4,4-trifluorobutyl)-[1,2,4]triazolo[1,5-a]pyrazin-6-yl)-5-(4-(trifluoromethyl)phenyl)-5H-pyrrolo[2,3-d]pyrimidin-6(7H)-one], the EC50 came out at 27.1 nM.

`CC1(c2ccc(C(F)(F)F)cn2)C(=O)Nc2nc(-c3cn4ncnc4c(CCCC(F)(F)F)n3)nc(N)c21` (stereo not shown) [Example 25B, 4-amino-5-methyl-2-(8-(4,4,4-trifluorobutyl)-[1,2,4]triazolo[1,5-a]pyrazin-6-yl)-5-(5-(trifluoromethyl)pyridin-2-yl)-5H-pyrrolo[2,3-d]pyrimidin-6(7H)-one]: the EC50 was determined as 27 nM.

Still in this test, the particulars now being: CHO-K1/sGC cells, 1 hr at 37° C., cGMP by HTRF; presence or absence of 1 μM DETA-NO not given; read-out: % Act. (percent activation relative to maximum cGMP production of Compound A = 100%).
As for `CC1(c2cccc(F)c2)C(=O)Nc2nc(-c3cn4ncnc4c(CCC(F)(F)C(F)(F)F)n3)nc(N)c21` (stereo not shown) [Example 14B, 4-amino-5-(3-fluorophenyl)-5-methyl-2 (8-(3,3,4,4,4-pentafluorobutyl)-[1,2,4]triazolo[1,5-a]pyrazin-6-yl)-5H-pyrrolo[2,3-d]pyrimidin-6(7H)-one], the Emax amounted to 90%.
